For one data set, the target named is PDE9 (Homo sapiens (Human), UniProt O76083). Briefly: PDE9-inhibiting activity (SPA enzyme assay). It counts as biochemical. The conditions noted are these: IC50 values; cGMP 1 μM substrate, 30° C.; read-out: PDE9 inhibition. As to the method:
The PDE9-inhibiting activity was measured by the following method. That is, to a buffer solution containing tris(hydroxymethyl)aminomethane-hydrochloric acid (40 mM, pH 8.0), magnesium chloride (5 mM), and 2-mercaptoethanol (4 mM) were added cGMP (1 μM) and ^3H-cGMP (0.33 μCi/ml) to give a substrate buffer solution. A test substance solution and an enzyme solution which had been adjusted to an optimal concentration were added thereto to perform a reaction at 30° C. The enzyme reaction was stopped by the addition of Scintillation Proximity Assay (SPA) Beads (Perkin Elmer, USA) containing 5 mM 3-isobutyl-1-methylxanthine (IBMX). For the enzyme activity, the amount of 5′-GMP, which is a reaction degradation product bound to SPA beads, was measured with a TopCount microplate reader (Hewlett Packard, USA). The inhibitory rate was calculated by taking the radioactivity of the control containing no test substance as (A), taking the radioactivity of the blank containing no enzyme as (B), and taking the radioactivity of the test substance as (C), and using the following equation.

Usually melting point stands for the temperature of the solid-liquid transition.

Structures can show the parent of a compound that is named as a salt.

Sequence of PDE9 (O76083 whole entry): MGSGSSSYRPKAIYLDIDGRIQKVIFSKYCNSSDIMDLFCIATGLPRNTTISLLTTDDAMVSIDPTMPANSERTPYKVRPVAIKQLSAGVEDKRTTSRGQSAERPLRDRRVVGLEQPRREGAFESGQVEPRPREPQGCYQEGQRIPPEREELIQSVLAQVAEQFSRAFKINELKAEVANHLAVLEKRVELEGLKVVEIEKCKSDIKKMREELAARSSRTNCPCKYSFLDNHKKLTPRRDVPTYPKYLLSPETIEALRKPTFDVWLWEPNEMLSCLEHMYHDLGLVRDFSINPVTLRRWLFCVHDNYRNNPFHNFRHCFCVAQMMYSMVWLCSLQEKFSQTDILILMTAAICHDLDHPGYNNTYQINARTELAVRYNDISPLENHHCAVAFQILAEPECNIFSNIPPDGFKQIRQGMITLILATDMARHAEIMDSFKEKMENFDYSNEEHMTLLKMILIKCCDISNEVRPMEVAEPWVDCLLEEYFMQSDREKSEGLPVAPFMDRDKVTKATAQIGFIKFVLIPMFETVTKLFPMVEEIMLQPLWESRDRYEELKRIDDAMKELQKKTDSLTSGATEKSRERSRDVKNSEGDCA

As to `Cc1cc2[nH]c(=O)c3cnn(C4CCOCC4)c3c2cc1C(=O)N1CCN(Cc2cccnc2)CC1` (as salt: hydrochloride) [Example 2, 7-methyl-8-{[4-(pyridin-3-ylmethyl)piperazin-1-yl]carbonyl}-1-(tetrahydro-2H-pyran-4-yl)-1,5-dihydro-4H-pyrazolo[4,3-c]quinolin-4-one dihydrochloride], the melting point lay within 259 to 263 °C. Turning to `O=C(c1ccc2c(c1)[nH]c(=O)c1cnn(C3CCCC3)c12)N1CCc2cc(Cl)ccc21` [Example 1, 7-[(5-chloro-2,3-dihydro-1H-indol-1-yl)carbonyl]-1-cyclopentyl-1,5-dihydro-4H-pyrazolo[4,3-c]quinolin-4-one], the melting point fell in the range of 291 to 294 °C. For the same molecule, the IC50 at PDE9 came out at 18 nM. Regarding `O=C(c1ccc2c(c1)[nH]c(=O)c1cnn(C3CCOCC3)c12)N1CCCC(c2ccccc2)C1` (stereo not shown) [Example 11], the melting point lay in the range of 298 to 301 °C. In the case of `O=C(c1ccc2c(c1)[nH]c(=O)c1cnn(C3CCOCC3)c12)N1CCc2cc(Cl)ccc21` [Example 12], the melting point is 341 to 343 °C. On PDE9, the IC50 stood at 8.6 nM. With `CN1CCN(C(=O)c2ccc3c(c2)[nH]c(=O)c2cnn(C4CCOCC4)c23)CC1c1ccccc1` (stereo not shown) [Example 13], the melting point was 183 to 186 °C. The IC50 on PDE9 came out at 85 nM.

`O=C(c1ccc2c(c1)[nH]c(=O)c1cnn(C3CCOCC3)c12)N1CCOC(c2ccc(F)cc2)C1` (stereo not shown) [Example 14] displayed a melting point of 293 to 296 °C. For the same molecule, the IC50 at PDE9 was 81 nM. `COc1cc2c(cn1)N(C(=O)c1ccc3c(c1)[nH]c(=O)c1cnn(C4CCOCC4)c13)CC2` [Example 15]: the melting point was 337 to 340 °C. `Cc1nn(C2CCCC2)c2c1c(=O)[nH]c1cc(C(=O)N3CCc4cc(F)ccc43)ccc12` [Example 18] showed a melting point of 321 to 323 °C. For `O=C(c1ccc2c(c1)[nH]c(=O)c1cnn(C3CCOCC3)c12)N1Cc2cccc(F)c2C1` [Example 19], the melting point was 312 to 318 °C (dec.). `O=C(c1ccc2c(c1)[nH]c(=O)c1cnn(C3CCOCC3)c12)N1CCOC(c2ccccc2F)C1` (stereo not shown) [Example 20]: the melting point was in the range of 174 to 176 °C. Turning to `Cc1cc2[nH]c(=O)c3cnn(C4CCOCC4)c3c2cc1C(=O)N1CCN(C)C(c2ccccc2)C1` (stereo not shown) [Example 21], the melting point was 253 to 256 °C. As to `COCCN1CCN(C(=O)c2cc3c(cc2C)[nH]c(=O)c2cnn(C4CCOCC4)c23)C[C@@H]1c1ccccc1` [Example 47], the melting point is 218 to 220 °C.

On to `Cc1cc2[nH]c(=O)c3cnn(C4CCOCC4)c3c2cc1C(=O)N1CCOC(c2cccnc2)C1` (stereo not shown) [Example 48], for which the melting point is 266 to 268 °C. The same measure, in the same setting: for `Cc1cc2[nH]c(=O)c3cnn(C4CCOCC4)c3c2cc1C(=O)N1CCN(CCCc2cccnc2)CC1` [Example 57] the value was 254 to 256 °C; for `Cc1cc2[nH]c(=O)c3cnn(C4CCCC4)c3c2cc1C(=O)N1CCN(C2CCOCC2)CC1` [Example 58], 263 to 265 °C; for `Cc1cc2[nH]c(=O)c3cnn(C4CCOCC4)c3c2cc1C(=O)N1CCN(CCCOC(C)C)CC1` [Example 64], 122 to 124 °C. `COCCCCN1CCN(C(=O)c2cc3c(cc2C)[nH]c(=O)c2cnn(C4CCCC4)c23)CC1` [Example 67] came in with a melting point of 234 to 236 °C. On to `Cc1cc2[nH]c(=O)c3cnn(C4CCOCC4)c3c2cc1C(=O)N1CCN(CCCOC(C)(C)C)CC1` [Example 77], for which the melting point lay in the range of 238 to 240 °C. Turning to `COCCCCN1CCN(C(=O)c2cc3c(cc2C)[nH]c(=O)c2cnn(CC4CCC4)c23)CC1` [Example 90], the melting point was in the range of 178 to 180 °C. Molecule `CCN1CCN(C(=O)c2cc3c(cc2C)[nH]c(=O)c2cnn(C4CCOCC4)c23)CC1c1cccnc1` (stereo not shown) [Example 91] had a melting point of 272 to 274 °C. For the molecule `COCCCN1CCN(C(=O)c2cc3c(cc2C)[nH]c(=O)c2cnn(CC4CCC4)c23)CC1` [Example 97], the melting point was 186 to 188 °C.

Consider `Cc1cc2[nH]c(=O)c3cnn([C@H]4CCOC4)c3c2cc1C(=O)N1CCC(OCC(F)(F)F)CC1` [Example 203], for which, on PDE9, the IC50 is 2.8 nM. Regarding `COCCCCN1CCN(C(=O)c2cc3c(cc2C)[nH]c(=O)c2cnn(CC4CC(F)(F)C4)c23)C[C@@H]1C` [Example 204], at PDE9, the IC50 turned out to be 6.2 nM. As to `Cc1cc2[nH]c(=O)c3cnn(C4CCOCC4)c3c2cc1C(=O)N1CCN(CCC(F)(F)F)[C@@H](C)C1` [Example 207], on PDE9, the IC50 was found to be 1.7 nM. The same measure, in the same setting: the result for `Cc1cc2[nH]c(=O)c3cnn(C4CCC(F)(F)CC4)c3c2cc1C(=O)N1CCN(CCC(F)(F)F)[C@@H](C)C1` [Example 208] reads 1.7 nM. Turning to `Cc1cc2[nH]c(=O)c3cnn(CC4CC4)c3c2cc1C(=O)N1CCN(CCC(F)(F)F)[C@@H](C)C1` [Example 210], at PDE9, the IC50 is 1.3 nM. Still for that read-out and setting: the result for `Cc1cc2[nH]c(=O)c3cnn(CC4CCC4)c3c2cc1C(=O)N1CCN(CCC(F)(F)F)[C@@H](C)C1` [Example 211] reads 1.2 nM. Regarding `Cc1cc2[nH]c(=O)c3cnn(C4CCCC4)c3c2cc1C(=O)N1CCN(CCC(F)(F)F)[C@@H](C)C1` [Example 212], the IC50 on PDE9 was determined as 2.4 nM. `Cc1ccc(OC2CCN(C(=O)c3cc4c(cc3C)[nH]c(=O)c3cnn(C5CCN(C)CC5)c34)CC2)nc1` [Example 213]: at PDE9, the IC50 was found to be 11 nM. As for `CCN1CCN(C(=O)c2cc3c(cc2C)[nH]c(=O)c2cnn(C4CCN(C)CC4)c23)C[C@@H]1c1ccccc1` [Example 214], the IC50 on PDE9 came out at 16 nM. Still for that read-out and setting: for `Cc1cc2[nH]c(=O)c3cnn([C@H]4CCOC4)c3c2cc1C(=O)N1CCN(CCCOC(F)(F)F)CC1` [Example 219] the value was 15 nM. In the case of `Cc1cc2[nH]c(=O)c3cnn([C@H]4CCOC4)c3c2cc1C(=O)N1CCC(OC[C@@H](C)F)CC1` [Example 220], the IC50 on PDE9 came to 16 nM. Regarding `Cc1cc2[nH]c(=O)c3cnn(C4CCOCC4)c3c2cc1C(=O)N1CCC(O)(C(F)(F)F)CC1` [Example 221], the IC50 at PDE9 was 24 nM.

Take `Cc1cc2[nH]c(=O)c3cnn(C4CCOCC4)c3c2cc1C(=O)N1CCN(C2CCCC2)CC1` [Example 255]: the melting point lay within 228 to 230 °C. As to `Cc1cc2[nH]c(=O)c3cnn(C4CCOCC4)c3c2cc1C(=O)N1CCC2(CC1)COc1ccccc12` [Example 283], the IC50 at PDE9 was 5.9 nM. On the same count and under the same terms, the result for `Cc1cc2[nH]c(=O)c3cnn(C4CCOCC4)c3c2cc1C(=O)N1CCN(CC(F)(F)F)CC1` [Example 427] reads 20 nM; that for `COCCCN1CCN(C(=O)c2cc3c(cc2C)[nH]c(=O)c2cnn(C4CCC(F)(F)CC4)c23)C[C@@H]1C` [Example 624], 10 nM; that for `COCCCN1CCN(C(=O)c2cc3c(cc2C)[nH]c(=O)c2cnn(CC4CC4)c23)C[C@@H]1C` [Example 640], 3.3 nM.

For the molecule `COCCCN1CCN(C(=O)c2cc3c(cc2C)[nH]c(=O)c2cnn(CC4CCC4)c23)C[C@@H]1C` [Example 648], the IC50 at PDE9 worked out at 2 nM. For `COCCCN1CCN(C(=O)c2cc3c(cc2C)[nH]c(=O)c2cnn(C4CCCC4)c23)C[C@@H]1C` [Example 655], the IC50 at PDE9 was 4.7 nM. `CCOCCCCN1CCN(C(=O)c2cc3c(cc2C)[nH]c(=O)c2cnn([C@H]4CCOC4)c23)CC1` [Example 660]: the IC50 at PDE9 turned out to be 28 nM. `COCCC1CCN(C(=O)c2cc3c(cc2C)[nH]c(=O)c2cnn([C@H]4CCOC4)c23)CC1` [Example 668]: the IC50 at PDE9 was 9.8 nM.

Values taken from patent US8822448B2, “Pyrazoloquinoline compound” (Astellas Pharma Inc., priority 2010, dated 2014).
